“And” between values parts separate entries of the source, which are not always exact repeats. Equal values may be shown once. Where a name gives a salt, the structure may show the parent alone.
Experiments:
[1] = biological target: T1, GST-LSD1 (Homo sapiens, UniProt O60341); experiment: biochemical
[2] = biological target: T1, GST-LSD1; conditions: for k(inact) / KI (inactivation): GST-LSD1, peroxidase-coupled assay; for k(inact)/Ki(inact): GST-LSD1 inactivation efficiency; for LSD1 inhibitory potency (in words): structure-activity comment on Table 1; for KI (inactivation): extrapolated to zero substrate
[3] = system: LNCaP cells; experiment: Drug combination experiments with bizine ([3H] thymidine, Combination Index); assay type: cell-based; conditions: binary combination with bizine, 48 h, 3H-thymidine incorporation
[4] = system: Immature primary cortical neurons; experiment: Oxidative toxicity (HCA) and neuron viability assay (MTT); assay type: cell-based, Sprague Dawley rats; conditions: 10 M phenelzine compared with 0.5 μM bizine
Procedure: The next day cells were rinsed and then placed in medium containing 5 mM HCA. […] The next day, cell viability was assessed by the MTT assay (Promega). […] The two-way ANOVA followed by the Bonferroni posttest was used to measure statistical significance. p<0.05 was considered to be statistically significant. Each bar represents four different rat cultures.

[5] = system: H3K4Me2 in LNCaP cells; experiment: Western blot of histone H3 marks in LNCaP cells; assay type: cell-based; conditions: 48 h, concentrations up to 40 M
Source text: Histone extracts were isolated as described previously. […] Data are presented from one representative experiment.
H3K4Me was detected using a polyclonal rabbit antibody (abcam ab8895). H3K4Me2 was detected using a monoclonal rabbit antibody (abcam ab32356). H3K4Me3 was detected using a polyclonal rabbit antibody (abcam ab8580). […] H3K9Me2 was detected using a monoclonal mouse antibody (abcam ab1220). H3K36Me3 was detected using a polyclonal rabbit antibody (abcam ab9050). H3K9Ac was detected using a polyclonal rabbit antibody (abcam ab4441). Total H3 was detected using a polyclonal rabbit antibody (abcam ab1791). LSD1 was detected using a polyclonal rabbit antibody (abcam ab17721). Actin was detected using a monoclonal mouse antibody (Sigma A1978).

CN(C)NCCc1ccccc1 [Compound 9b, 1,1-Dimethyl-2-(2-phenylethyl)hydrazine]
IC50 [1]: > 100000 nM

Cl.Cl.NNCCCc1ccccc1 [Compound 9c, (3-Phenylpropyl)hydrazine dihydrochloride]
k(inact) [2]: 0.32 ± 0.010 min⁻¹

COc1ccc(CCCNN)cc1.Cl.Cl [Compound 9e, [3-(4-Methoxyphenyl)propyl]hydrazine dihydrochloride]
k(inact) [2]: 0.15 ± 0.023 min⁻¹
k(inact)/Ki(inact) [2]: 317 ± 145 M⁻¹ s⁻¹
LSD1 inhibitory potency (in words) [2]: made little difference

CNNCCCc1ccc(OC)cc1 [Compound 9f, 1-[3-(4-Methoxyphenyl)propyl]-2-methylhydrazine dihydrochloride]
IC50 [1]: > 100000 nM

Cl.Cl.NNCCCCc1ccccc1 [Compound 9h, (4-Phenylbutyl)hydrazine dihydrochloride]
k(inact) [2]: 0.12 ± 0.01 min⁻¹
k(inact)/Ki(inact) [2]: 91.7 ± 14.5 M⁻¹ s⁻¹

Cl.Cl.NNCCOc1ccccc1 [Compound 10a, (2-Phenoxyethyl)hydrazine dihydrochloride]
k(inact) [2]: 0.15 ± 0.010 min⁻¹
k(inact)/Ki(inact) [2]: 56.7 ± 13.2 M⁻¹ s⁻¹

Cl.Cl.NNCCCOc1ccccc1 [Compound 10b, (3-Phenoxypropyl)hydrazine dihydrochloride]
k(inact) [2]: 0.22 ± 0.020 min⁻¹
k(inact)/Ki(inact) [2]: 300 ± 60 M⁻¹ s⁻¹

NNCCCN1CCOCC1 [Compound 11, 4-(3-Hydrazinylpropyl) morpholine, reference compound]
IC50 [1]: > 100000 nM
LSD1 inhibitory potency (in words) [2]: not compatible with LSD1 inhibition

Cl.Cl.NNCCc1ccc(NC(=O)c2ccccc2)cc1 [Compound 12a, N-[4-(2-Hydrazinylethyl)phenyl]benzamide dihydrochloride]
k(inact) [2]: 0.19 ± 0.036 min⁻¹
k(inact)/Ki(inact) [2]: 11700 ± 5170 M⁻¹ s⁻¹

Cl.Cl.NNCCc1ccc(NC(=O)Cc2ccccc2)cc1 [Compound 12b, N-[4-(2-Hydrazinylethyl)phenyl]-2-phenylacetamide dihydrochloride]
k(inact) [2]: 0.20 ± 0.0087 min⁻¹
k(inact)/Ki(inact) [2]: 9000 ± 900 M⁻¹ s⁻¹

NNCCc1ccc(NC(=O)CCc2ccccc2)cc1.O=S(=O)(O)O [Compound 12c, N-[4-(2-Hydrazinylethyl)phenyl]-3-phenylpropanamide sulfate]
k(inact) [2]: 0.24 ± 0.022 min⁻¹
k(inact)/Ki(inact) [2]: 15300 ± 3670 M⁻¹ s⁻¹

NNCCc1ccc(NC(=O)CCCCc2ccccc2)cc1.O=C(O)C(=O)O [Compound 12e, N-[4-(2-Hydrazinylethyl)phenyl]-5-phenylpentanamide oxalate]
k(inact) [2]: 0.22 ± 0.038 min⁻¹
k(inact)/Ki(inact) [2]: 14300 ± 6500 M⁻¹ s⁻¹

NNCCc1ccc(NC(=O)CCCc2ccc(Cl)cc2)cc1.O=S(=O)(O)O [Compound 12f, 4-(4-Chlorophenyl)-N-[4-(2-hydrazinylethyl)phenyl]butanamide sulfate]
k(inact) [2]: 0.17 ± 0.018 min⁻¹
k(inact)/Ki(inact) [2]: 18300 ± 5830 M⁻¹ s⁻¹

COc1ccc(CCCC(=O)Nc2ccc(CCNN)cc2)cc1.O=S(=O)(O)O [Compound 12h, N-[4-(2-Hydrazinylethyl)phenyl]-4-(4-methoxyphenyl)butanamide sulfate]
k(inact) [2]: 0.26 ± 0.042 min⁻¹
KI (inactivation) [2]: 207 ± 89 nM
k(inact)/Ki(inact) [2]: 20000 ± 9500 M⁻¹ s⁻¹

NNCCc1ccc(NC(=O)CCCc2ccc([N+](=O)[O-])cc2)cc1.O=S(=O)(O)O [Compound 12i, N-[4-(2-Hydrazinylethyl)phenyl]-4-(4-nitrophenyl)butanamide sulfate]
k(inact) [2]: 0.21 ± 0.024 min⁻¹
k(inact)/Ki(inact) [2]: 12300 ± 3670 M⁻¹ s⁻¹

CS(=O)(=O)Oc1ccccc1CCC(=O)Nc1ccc(CCNN)cc1.O=C(O)C(=O)O [Compound 12j, 2-(3-{[4-(2-Hydrazinylethyl)phenyl]amino}-3-oxopropyl)phenyl methanesulfonate oxalate]
k(inact) [2]: 0.18 ± 0.034 min⁻¹
KI (inactivation) [2]: 204 ± 98 nM
k(inact)/Ki(inact) [2]: 14700 ± 7670 M⁻¹ s⁻¹

CS(=O)(=O)Oc1cccc(CCC(=O)Nc2ccc(CCNN)cc2)c1.O=C(O)C(=O)O [Compound 12k, 3-(3-{[4-(2-Hydrazinylethyl)phenyl]amino}-3-oxopropyl)phenyl methanesulfonate oxalate]
k(inact) [2]: 0.17 ± 0.020 min⁻¹
KI (inactivation) [2]: 223 ± 64 nM
k(inact)/Ki(inact) [2]: 12700 ± 4000 M⁻¹ s⁻¹

CN(C(=O)CCCc1ccccc1)c1ccc(CCNN)cc1.O=C(O)C(=O)O [Compound 12l, N-[4-(2-Hydrazinylethyl)phenyl]-N-methyl-4-phenylbutanamide oxalate]
k(inact) [2]: 0.24 ± 0.033 min⁻¹
k(inact)/Ki(inact) [2]: 2000 ± 750 M⁻¹ s⁻¹

NNCCc1ccc(N(Cc2ccccc2)C(=O)CCCc2ccccc2)cc1.O=C(O)C(=O)O [Compound 12m, N-Benzyl-N-[4-(2-hydrazinylethyl)phenyl]-4-phenylbutanamide oxalate]
k(inact) [2]: 0.22 ± 0.025 min⁻¹
k(inact)/Ki(inact) [2]: 2330 ± 733 M⁻¹ s⁻¹

NNCCc1ccc(NC(=O)/C=C/c2ccccc2)cc1.O=S(=O)(O)O [Compound 13, (2E)-N-[4-(2-Hydrazinylethyl)phenyl]-3-phenylprop-2-enamide sulfate]
k(inact) [2]: 0.17 ± 0.21 min⁻¹
k(inact)/Ki(inact) [2]: 28300 ± 11300 M⁻¹ s⁻¹
LSD1 inhibitory potency (in words) [2]: reduced LSD1 inhibitory potency

NNCCCc1ccc(OCc2ccccc2)cc1 [Compound 14, {3-[4-(Benxyloxy)phenyl]propyl}hydrazine]
k(inact) [2]: 0.18 ± 0.038 min⁻¹
KI (inactivation) [2]: 900 ± 450 nM
k(inact)/Ki(inact) [2]: 3330 ± 1830 M⁻¹ s⁻¹
LSD1 inhibitory potency (in words) [2]: reduced LSD1 inhibitory potency

NNCCc1ccc(NC(=O)CCc2c[nH]c3ccccc23)cc1.O=S(=O)(O)O [Compound 15a, N-[4-(2-Hydrazinylethyl)phenyl]-3-(1H-indol-3-yl)propanamide sulfate]
k(inact) [2]: 0.21 ± 0.030 min⁻¹
k(inact)/Ki(inact) [2]: 16700 ± 6830 M⁻¹ s⁻¹

Cc1[nH]c2ccccc2c1CCNCc1ccc(/C=C/C(=O)NO)cc1 [LBH-589]
effect of combination with bizine on cell inhibition (in words) [3]: additive to synergistic effects

Nc1ccccc1NC(=O)c1ccc(CNC(=O)OCc2cccnc2)cc1 [MS-275]
effect of combination with bizine on cell inhibition (in words) [3]: additive to synergistic effects

NNCCc1ccccc1 [phenelzine, reference compound]
neuroprotection after HCA-treatment [4]: comparable
k(inact) [2]: 0.35 min⁻¹ and 0.35 ± 0.056 min⁻¹
H3K4Me2 changes [5]: did not induce H3K4Me2 changes

Reference: patent US20170029366A1, “INHIBITORS OF HISTONE LYSINE SPECIFIC DEMETHYLASE (LSD1) AND HISTONE DEACETYLASES (HDACS)” (THE JOHNS HOPKINS UNIVERSITY, priority 2014, published 2017)
